≈ marks a conversion by molar mass, not a printed value. Blank lines part the entries; values can stand above or below the molecule they belong to.
Tests used:
[1] = Hemolytic activity in sheep erythrocytes; type: ADME, cell-based, Ovis aries, Erythrocyte
Pseudomonas aeruginosa [2] = assay: Antibacterial activity against Pseudomonas aeruginosa NBRC 3080; type: functional
Bacillus subtilis = assay: Antibacterial activity against Bacillus subtilis NBRC 3513; type: functional
Staphylococcus aureus [3] = assay: Antibacterial activity against Staphylococcus aureus NBRC 12732; type: functional
Priestia megaterium = assay: Antibacterial activity against Bacillus megaterium ATCC 19213; type: functional
Escherichia coli [4] = assay: Antibacterial activity against Escherichia coli NBRC 12734; type: functional
Staphylococcus aureus [5] = assay: Antibacterial activity against Staphylococcus aureus ATCC 49975 after 16 to 20 hrs by broth microdilution method; type: functional
[6] = test system: Staphylococcus epidermidis; assay: Antibacterial activity against Staphylococcus epidermidis ATCC 12228 incubated for 24 hrs; type: functional; conditions: ATCC 12228, 24 h
Pseudomonas aeruginosa [7] = assay: Antibacterial activity against Pseudomonas aeruginosa ATCC 27853 incubated for 24 hrs; type: functional; conditions: ATCC 27853, 24 h
Staphylococcus aureus [8] = assay: Antibacterial activity against Staphylococcus aureus ATCC 29213 after 24 hrs; type: functional; conditions: ATCC 29213, 24 h
Bacillus cereus = assay: Antibacterial activity against Bacillus cereus ATCC 11778 incubated for 24 hrs; type: functional; conditions: ATCC 11778, 24 h
Enterococcus faecalis = assay: Antibacterial activity against Enterococcus faecalis ATCC 29212 after 24 hrs; type: functional; conditions: ATCC 29212, 24 h
Escherichia coli [9] = assay: Antibacterial activity against Escherichia coli ATCC 25922 after 24 hrs; type: functional; conditions: ATCC 25922, 24 h
Escherichia coli [10] = assay: Antibacterial activity against Escherichia coli K-12 ATCC 29181 after overnight incubation by broth microdilution method; type: functional
Salmonella = assay: Antibacterial activity against Salmonella after overnight incubation by broth microdilution method; type: functional
[11] = Haemolytic activity in human RBC incubated for 1 hr; type: ADME, cell-based, Erythrocyte; conditions: human red blood cells
Staphylococcus aureus [12] = assay: Antibacterial activity against vancomycin-resistant Staphylococcus aureus Mu50/ATCC 700699 after overnight incubation by broth microdilution method; type: functional
Staphylococcus aureus [13] = assay: Antibacterial activity against multidrug-resistant Staphylococcus aureus ATCC BAA-44 after overnight incubation by broth microdilution method; type: functional
[14] = test system: Staphylococcus epidermidis; assay: Antibacterial activity against Staphylococcus epidermidis ATCC 27626 after overnight incubation by broth microdilution method; type: functional
Klebsiella pneumoniae = assay: Antibacterial activity against Klebsiella pneumonia K6 ATCC 700603 after overnight incubation by broth microdilution method; type: functional; conditions: 700603 K6
[15] = Haemolytic activity in human RBC after 4 hrs; type: ADME, cell-based, Erythrocyte; conditions: human red blood cells

Structure (SMILES): NCCC[C@@H]1NC(=O)[C@H](CCCN)NC(=O)[C@@H]2CCCN2C(=O)[C@@H](Cc2ccccc2)NC(=O)[C@H](CCCN)NC(=O)[C@H](CCCN)NC(=O)[C@H](CCCN)NC(=O)[C@@H]2CCCN2C(=O)[C@@H](Cc2ccccc2)NC(=O)[C@H](CCCN)NC1=O [listing 1 of 2 here]
- HC50 [1]: > 200 µg/mL

Structure (SMILES): NCCC[C@@H]1NC(=O)[C@H](CCCN)NC(=O)[C@@H]2CCCN2C(=O)[C@@H](Cc2ccccc2)NC(=O)[C@H](CCCN)NC(=O)[C@H](CCCN)NC(=O)[C@H](CCCN)NC(=O)[C@@H]2CCCN2C(=O)[C@@H](Cc2ccccc2)NC(=O)[C@H](CCCN)NC1=O [listing 2 of 2 here]
- MIC (Pseudomonas aeruginosa [2]): > 100 µg/mL
- MIC (Bacillus subtilis): 12.5 µg/mL (≈ 10.7 µM)
- MIC (Staphylococcus aureus [3]): 50 µg/mL (≈ 42.6 µM)
- MIC (Priestia megaterium): 12.5 µg/mL (≈ 10.7 µM)
- MIC (Escherichia coli [4]): > 100 µg/mL

Structure (SMILES): CC(C)C[C@@H]1NC(=O)[C@H](CCCN)NC(=O)[C@H](C(C)C)NC(=O)[C@H](C)N(C)C(=O)[C@@H](Cc2ccccc2)NC(=O)[C@H](C)N(C)C(=O)[C@@H](CCCN)NC(=O)[C@H](C(C)C)NC(=O)[C@@H]2CCCN2C(=O)[C@@H](Cc2ccccc2)NC1=O
- MIC (Escherichia coli [10]): 28 µg/mL (≈ 25.4 µM)
- MIC (Salmonella): 28 µg/mL (≈ 25.4 µM)
- HC50 at 1 h [11]: 69.2 µg/mL
- MIC (Staphylococcus aureus [12]): 3.5 µg/mL (≈ 3.18 µM)
- MIC (Staphylococcus aureus [13]): 7 µg/mL (≈ 6.36 µM)
- MIC [14]: 1.8 µg/mL (≈ 1.63 µM)
- MIC (Klebsiella pneumoniae): 7 µg/mL (≈ 6.36 µM)

Structure (SMILES): NCCC[C@@H]1NC(=O)[C@H](C23CC4CC(CC(C4)C2)C3)NC(=O)[C@H](CCCN)NC(=O)[C@@H]2CCCN2C(=O)[C@@H](Cc2ccccc2)NC(=O)[C@H](CCCN)NC(=O)[C@H](C23CC4CC(CC(C4)C2)C3)NC(=O)[C@H](CCCN)NC(=O)[C@@H]2CCCN2C(=O)[C@@H](Cc2ccccc2)NC1=O
- HC50 at 4 h [15]: 107 µg/mL

Results, then the molecule that gave them:

- MIC (Staphylococcus aureus [5]): 256 µg/mL (≈ 251 µM)
Structure (SMILES): CC(C)C[C@@H]1NC(=O)[C@@H](CCCN)NC(=O)[C@H](C(C)C)NC(=O)c2cccc(c2)/N=N/c2ccc(cc2)CNC(=O)[C@H](CCCN)NC(=O)[C@H](C(C)C)NC(=O)[C@@H]2CCCN2C(=O)[C@@H](Cc2ccccc2)NC1=O

- MIC [6]: 8 µg/mL (≈ 6.99 µM)
- MIC (Pseudomonas aeruginosa [7]): > 64 µg/mL
- MIC (Staphylococcus aureus [8]): 16 µg/mL (≈ 14 µM)
- MIC (Bacillus cereus): 8 µg/mL (≈ 6.99 µM)
- MIC (Enterococcus faecalis): 16 µg/mL (≈ 14 µM)
- MIC (Escherichia coli [9]): 32 µg/mL (≈ 28 µM)
Structure (SMILES): CC(C)C[C@@H]1NC(=O)[C@H](CCCN)NC(=O)[C@H](C(C)C)NC(=O)[C@@H]2CCCN2C(=O)[C@@H](Cc2ccccc2)NC(=O)[C@H](CC(C)C)NC(=O)[C@H](CCCN)NC(=O)[C@H](C(C)C)NC(=O)[C@H]2CC[C@H](OCc3ccccc3)[C@@H](CNC1=O)O2
